Earlier results as cited in US20250302767A1, “TREATMENT OF CANCER AND AUTOIMMUNE DISORDERS USING NANO POLYMERS OF HISTONE DEACETYLASE INHIBITORS” (University of Virginia Patent Foundation, priority 2021, published 2025).

Key:
PTCL = conditions: patients with PTCL, single agent, cited from earlier work; for Outcomes: ORR: pivotal trial cited per drug (romidepsin: trial (6) Coiffier et al., 2014); for Outcomes: CR / Outcomes: DOR: pivotal trial cited per drug (romidepsin: trial (6))
ALCL = conditions: patients with ALCL, pivotal trials (3, 4); cited from earlier work

## C#CCC(Cc1cnc2nc(N)nc(N)c2n1)c1ccc(C(=O)N[C@@H](CCC(=O)O)C(=O)O)cc1 (stereo partly drawn) [Pralatrexate]
PTCL
  Outcomes: ORR: 29%
  Outcomes: CR: 11%
  Outcomes: DOR: 10.1 months

## Nc1cc(F)ccc1NC(=O)c1ccc(CNC(=O)/C=C/c2cccnc2)cc1 [Chidamide, N-(2-Amino-4-fluorophenyl)-4-[[[(E)-3-pyridin-3-ylprop-2-enoyl]amino]methyl]benzamide]
PTCL
  Outcomes: ORR: 28%
  Outcomes: CR: 14%
  Outcomes: DOR: 9.9 months

## O=C(/C=C/c1cccc(S(=O)(=O)Nc2ccccc2)c1)NO [Belinostat]
PTCL
  Outcomes: ORR: 26%
  Outcomes: CR: 11%
  Outcomes: DOR: 13.6 months

## Brentuximab vedotin
ALCL
  Outcomes: CR: 57%
  Outcomes: DOR: 13.2 months
  Outcomes: ORR: 86%
